# Values quoted from earlier work, collected in US10045962B2 (priority 2014, dated 2018).
# Experiments:
# reuptake of serotonin = conditions: pre-clinical tests; cited from earlier work
# cholinergic receptors = conditions: in vitro tests; cited from earlier work
# histaminergic receptors = conditions: in vitro tests; cited from earlier work
# adrenergic receptors = conditions: in vitro tests; cited from earlier work
# reuptake of dopamine = conditions: pre-clinical tests; cited from earlier work
# [1] = test system: reuptake of norepinephrine; conditions: pre-clinical tests; cited from earlier work
# monoamine oxidase = conditions: cited from earlier work
# dopaminergic receptors = conditions: in vitro tests; cited from earlier work
structure (smiles),measurement,setting,value
CNCC[C@H](Oc1cccc2ccccc12)c1cccs1 [duloxetine],block of reuptake of serotonin,reuptake of serotonin,effectively block
same,affinity to cholinergic receptors,cholinergic receptors,no significant affinity
same,affinity to histaminergic receptors,histaminergic receptors,no significant affinity
same,affinity to adrenergic receptors,adrenergic receptors,no significant affinity
same,block of reuptake of dopamine,reuptake of dopamine,merely slightly block
same,block of reuptake of norepinephrine,[1],effectively block
same,inhibition of monoamine oxidase,monoamine oxidase,does not inhibit
same,affinity to dopaminergic receptors,dopaminergic receptors,no significant affinity
